Data on 16 sequences can be found in patent publication US20130310306A1, “HUMAN LACTOFERRIN DERIVED PEPTIDES AND THEIR USE” (PharmaSurgics In Sweden AB, priority 2011, published 2013).

Assay [1] concerns TNF-α production in LPS stimulated THP-1 cells. As to the kind of experiment: Inhibition of TNF-α production in LPS stimulated THP-1 cells (ELISA). To be noted: mean relative secretion; for TNF-α at 40 μM peptide: stimulated level without peptide = 100%, basal = 0%.
Assay [2] has as its system S. aureus (CCUG 1800). Briefly: Minimal microbicidal concentration (MMC99) assay, S. aureus. It counts as cell-based. To be noted: 2 hours; for MMC99 μM in 50% SWF: 50% heat inactivated simulated wound fluid. As for the experimental part:
Antimicrobial Activity was Measured as Bactericidal Effect on S. Aureus Using Minimal Microbicidal Concentration, MMC99, Assay)
S. aureus (#1800; CCUG, Gothenburg, Sweden) cultured on blood-agar plates [Columbia agar (Oxoid, Basingstoke, UK) supplemented with 5% defibrinated horse blood (National Veterinary Institute (SVA), Uppsala, Sweden)] were transferred to brain heart infusion broth (3.7% BHI; Difco, BD Diagnostics, Franklin Lakes, N.J., USA) and incubated in a shaker at 250 rpm+37° C. over night. The culture was thereafter be diluted 1:10 in fresh BHI broth and incubated for additional two hours to reach log-phase growth. The bacteria were pelleted and suspended in 1% BHI medium (BHI broth diluted 100 times in ultra-pure water) to a concentration of 10^7 bacteria/ml as estimated by measuring optical density at 600 nm. Peptides were serially diluted by two-fold steps from 160 μM to 1.25 μM in 1% BHI medium. The peptides (100 μl) were thereafter incubated with bacteria (5 μl á 10^7 bact./ml) for 2 hours at +37° C. Drops (5 μl) of the suspension were placed on blood agar plates. The blood agar plates were incubated over night at +37° C. The MMC99 values, i.e. the lowest peptide concentration needed to achieve a 99% reduction of viable bacteria, were recorded (Table 3). The concentration of the bacterial suspension used in the assay was confirmed by viable counts on blood agar plates.
S. aureus (#1800; CCUG, Gothenburg, Sweden) cultured on blood-agar plates [Columbia agar (Oxoid, Basingstoke, UK) supplemented with 5% defibrinated horse blood (National Veterinary Institute (SVA), Uppsala, Sweden)] were transferred to brain heart infusion broth (3.7% BHI; Difco, BD Diagnostics, Franklin Lakes, N.J., USA) and incubated in a shaker at 250 rpm+37° C. over night. The culture was thereafter be diluted 1:10 in fresh BHI broth and incubated for additional two hours to reach log-phase growth. The bacteria were pelleted and suspended in 1% BHI medium (BHI broth diluted 100 times in ultra-pure water) to a final concentration of 10^7 bacteria/ml as estimated by measuring optical density at 600 nm. Peptides were serially diluted by two-fold steps from 400 μM to 0.78 μM in either 1% BHI medium or in 50% heat inactivated simulated wound fluid [SWF, containing 1 part 0.1% peptone (Oxoid, Basingstoke, UK) in saline and 1 part fetal bovine serum, diluted 2 times in ultra-pure water].
The peptides (100 μl) were thereafter incubated with bacteria (5 μl á 10^7 bact./ml) for 2 hours at +37° C. Drops (5 μl) of the suspension were placed on blood agar plates. The blood agar plates were incubated over night at +37° C. The MMC99 values, i.e. the lowest peptide concentration needed to achieve a 99% reduction of viable bacteria were recorded (Table 6). The concentration of the bacterial suspension used in the assay was confirmed by viable counts on blood agar plates.
The antimicrobial effects of the peptide 265 (SEQ ID NO: 27) was analysed by MMC99 (minimal microbicidal concentration) assay against S. aureus (CCUG 1800), MRSA (CCUG 41879), P. aeruginosa (ATCC 15442), E. coli (CCUG 31246), S. pyogenes (CCUG 4207), P. acnes (CCUG 1794T), S. epidermidis (ATCC12228), K. pneumoniae (ATCC 13883), A. baumannii (ATCC 19606), and C. albicans (ATCC 64549). The peptides were purchased from Biopeptide Company (San Diego, Calif., USA) and Bachem AG (Bubendorf, Switzerland) and results are presented in Table 8A and 8B respectively.
Peptide was serially diluted in two different assay medium, 1% BHI medium (brain-heart infusion medium) or 50% heat inactivated simulated wound fluid (SWF), and thereafter incubated with the microorganisms for 2 hours. Drops of the suspension were placed on blood agar plates. The MMC99 values, i.e. the lowest peptide concentration needed to achieve a 99% reduction of viable microorganisms, were recorded. As presented in Table 8, the peptide has the ability to kill microorganisms frequently appearing in infections.

The mark [3] stands for this setting: screen 1, 99% reduction of viable bacteria.

In the case of FQWQRNMRKVRGSRRRRG [Peptide 116], the “TNF-α at 40 μM peptide” value in assay [1] (screen 1, 6 h) is on record as 83%. Further, the “MMC99 μM in 1% BHI medium” value in assay [2] (setting [3]) is 10 µM.
In the case of CFLWRRNMRKVRGSRRRRG [Peptide 276], in assay [1] (screen 2), the “TNF-α at 40 μM peptide” value is 38.8%, the “TNF-α at 4 μM peptide” value turned out to be 111.0% and the “TNF-α at 10 μM peptide” value was 135.3%. In assay [2] (screen 2), the “MMC99 μM in 1% BHI medium” value is 6.25 µM and the “MMC99 μM in 50% SWF” value was 12.5 µM.
Take FQWKRRMRKVRGSKKKKG [Peptide 257]: in assay [1] (screen 2), the “TNF-α at 40 μM peptide” value is recorded as 62.8%, the “TNF-α at 4 μM peptide” value amounted to 114.5% and the “TNF-α at 10 μM peptide” value is 109.1%. In addition, in assay [2] (screen 2), the “MMC99 μM in 1% BHI medium” value stood at 6.25 µM and the “MMC99 μM in 50% SWF” value was 200 µM.
On to FWWKRAMRKVRGSRRRRG [Peptide 132], for which the “TNF-α at 40 μM peptide” value in assay [1] (screen 1, 6 h) is listed as 18%. Further, the “MMC99 μM in 1% BHI medium” value in assay [2] (setting [3]) was 5 µM.
On the same counts, the results for FQWQRNMRKVRGSRRRRG [Peptide 150] are 134% and 10 µM.
VYYKRTARKARGSRRRRG [Peptide 272]: in assay [1] (screen 2), the “TNF-α at 40 μM peptide” value amounted to 102.8%.
On to WFQWKRAMRKVRGSRRRRG [Peptide 130], for which the “TNF-α at 40 μM peptide” value in assay [1] (screen 1, 6 h) amounted to 6%. In assay [2] (setting [3]), the “MMC99 μM in 1% BHI medium” value worked out at 5 µM.
FQWKRRMRKVRGSLRRWG [Peptide 258]: in assay [1] (screen 2), the “TNF-α at 40 μM peptide” value turned out to be 39.8%, the “TNF-α at 4 μM peptide” value worked out at 110.4% and the “TNF-α at 10 μM peptide” value amounted to 115.4%. For the same sequence, in assay [2] (screen 2), the “MMC99 μM in 1% BHI medium” value was 6.25 µM and the “MMC99 μM in 50% SWF” value was 12.5 µM.
On the same counts, the results for FWWKKAMKKVKGTRRRRG [Peptide 273] are 52.7%, 86.2%, 78.6%, 6.25 µM and 12.5 µM.
As to KQWKRMMRKVFSVRRWFL [Peptide 262], in assay [1] (screen 2), the “TNF-α at 40 μM peptide” value is 12.1%, the “TNF-α at 4 μM peptide” value is recorded as 79.6% and the “TNF-α at 10 μM peptide” value is 45.3%. In addition, in assay [2] (screen 2), the “MMC99 μM in 1% BHI medium” value stood at 6.25 µM and the “MMC99 μM in 50% SWF” value was 6.25 µM.
Take RQWKRVMRKVFGSRWWRG [Peptide 261]: in assay [1] (screen 2), the “TNF-α at 40 μM peptide” value was 24.5%, the “TNF-α at 4 μM peptide” value stood at 86.0% and the “TNF-α at 10 μM peptide” value is reported as 56.2%. Moreover, in assay [2] (screen 2), the “MMC99 μM in 1% BHI medium” value turned out to be 12.5 µM and the “MMC99 μM in 50% SWF” value was 12.5 µM.
On to FQWQRNMRKVRGPPSRRRRG [Peptide 154], for which the “TNF-α at 40 μM peptide” value in assay [1] (screen 1, 6 h) is reported as 162%. Moreover, the “MMC99 μM in 1% BHI medium” value in assay [2] (setting [3]) was determined as 10 µM.
Regarding FQWQRNMRKVRGSRRRRG [Peptide 224], the “TNF-α at 40 μM peptide” value in assay [1] (screen 2) amounted to 113.4%. In assay [2] (screen 2), the “MMC99 μM in 1% BHI medium” value turned out to be 12.5 µM and the “MMC99 μM in 50% SWF” value was 400 µM.
GRRRRSFQWKRRMRKVR [Peptide 269]: in assay [1] (screen 2), the “TNF-α at 40 μM peptide” value is on record as 66.2%, the “TNF-α at 4 μM peptide” value is 115.7% and the “TNF-α at 10 μM peptide” value worked out at 113.8%. In assay [2] (screen 2), the “MMC99 μM in 1% BHI medium” value was found to be 6.25 µM and the “MMC99 μM in 50% SWF” value was 200 µM.
On to FQWQRKMRKVRGSRRRRG [Peptide 126], for which the “TNF-α at 40 μM peptide” value in assay [1] (screen 1, 6 h) was found to be 107%. Besides, the “MMC99 μM in 1% BHI medium” value in assay [2] (setting [3]) is 10 µM.
As for CFQWKRAMRKVRGSRRRRG [Peptide 155], in assay [1] (screen 1, 6 h), the “TNF-α at 40 μM peptide” value is 5%. Moreover, the “MMC99 μM in 1% BHI medium” value in assay [2] (setting [3]) worked out at 10 µM.
